Reference: PubChem BioAssay AID246 (DTP/NCI, 2004)
Where “and” joins values, the source holds several entries; their conditions need not be identical. Equal entries are not always repeated. Inconclusive results and toxic doses are left out. How the source made its calls: active means survival T/C of 150% or more; inactive means T/C below 125% in these data. Numbered stars: 1 amine (or outer) side, 2 acyl side, 3 side chain; on linkers, the order of the positions; unused ones are H or OH. Bridge positions count the residues as written; N and C are the ends. Square brackets hold non-standard residues; d marks the D form. Peptide text beside a SMILES is read from it. I, II: the chains in the order shown. Actinocin(9to1) = Cc1c2oc3c(C)ccc(C(=O)[*:1])c3nc-2c(C(=O)[*:2])c(N)c1=O; aThr = C[C@H](O)[C@H](N)C(=O)O; NMeV = CN[C@H](C(=O)O)C(C)C; Sar = CNCC(=O)O

Tested on: BDF1 mice, P1081 chloroleukemia ip, survival T/C
Assay: NCI In Vivo Anticancer Drug Screen. Data for tumor model P1081 Chloroleukemia (intraperitoneal) in B6D2F1 (BDF1) mice
Details: endpoint: mean survival time, higher = longer survival
Protocol: The antitumor activity of compounds was measured in mice bearing transplantable tumors. Survival or tumor size were measured and the results are expressed as the measurement made in the treated group (T) divided by the measurement made in the vehicle treated control group (C). The tumor model used in this assay is P1081 Chloroleukemia (intraperitoneal) in B6D2F1 (BDF1) mice

[1] = dose: 5.0 mg/kg/injection, schedule: Q01DX010 (ip), vehicle: saline
[2] = dose: 10.0 mg/kg/injection, schedule: Q01DX010 (ip), vehicle: saline
[3] = dose: 25.0 mg/kg/injection, schedule: Q01DX010 (ip), vehicle: saline

Measured: T/C

O=P1(N(CCCl)CCCl)NCCCO1 (stereo not given)
inactive: dose: 3.12 mg/kg/injection, schedule: Q01DX Z (ip), vehicle: saline 110 % of control | dose: 6.25 mg/kg/injection, schedule: Q01DX Z (ip), vehicle: saline 119 % of control | dose: 6.3 mg/kg/injection, schedule: Q01DX Z (ip), vehicle: saline 102 % of control | dose: 11.3 mg/kg/injection, schedule: Q01DX010 (ip), vehicle: saline 113 % of control and 117 % of control (2×) | dose: 22.5 mg/kg/injection, schedule: Q01DX010 (ip), vehicle: saline 107 % of control and 120 % of control and 121 % of control | dose: 45.0 mg/kg/injection, schedule: Q01DX010 (ip), vehicle: saline 105 % of control and 107 % of control | dose: 90.0 mg/kg/injection, schedule: Q01DX010 (ip), vehicle: saline 105 % of control and 90 % of control | dose: 100.0 mg/kg/injection, schedule: Q01DX Z (ip), vehicle: saline 115 % of control | dose: 180.0 mg/kg/injection, schedule: Q01DX010 (ip), vehicle: saline 87 % of control

CC(=O)OCC1OC(n2ncc(=O)[nH]c2=O)C(OC(C)=O)C1OC(C)=O (stereo not given)
inactive: dose: 118.0 mg/kg/injection, schedule: Q01DX Z (ip), vehicle: other 100 % of control | dose: 235.0 mg/kg/injection, schedule: Q01DX Z (ip), vehicle: other 93 % of control | dose: 468.75 mg/kg/injection, schedule: Q01DX Z (ip), vehicle: alkali diluted with saline 115 % of control | dose: 469.0 mg/kg/injection, schedule: Q01DX Z (ip), vehicle: other 91 % of control | dose: 1875.0 mg/kg/injection, schedule: Q01DX Z (ip), vehicle: alkali diluted with saline 121 % of control | dose: 3750.0 mg/kg/injection, schedule: Q01DX Z (ip), vehicle: alkali diluted with saline 111 % of control

N=C(N)SCc1c2ccccc2c(CSC(=N)N)c2ccccc12
active: dose: 2.5 mg/kg/injection, schedule: Q01DX010 (ip), vehicle: saline 220 % of control | [1] 183 % of control and 210 % of control | [2] 155 % of control and 240 % of control | dose: 20.0 mg/kg/injection, schedule: Q01DX010 (ip), vehicle: saline 172 % of control and 200 % of control
inactive: dose: 40.0 mg/kg/injection, schedule: Q01DX010 (ip), vehicle: saline 122 % of control

CC[C@@H](c1ccc(O)cc1)[C@@H](CC)c1ccc(O)cc1
inactive: dose: 62.5 mg/kg/injection, schedule: Q01DX Z (sc), vehicle: steriod suspending solution 101 % of control | dose: 125.0 mg/kg/injection, schedule: Q01DX Z (sc), vehicle: steriod suspending solution 104 % of control | dose: 250.0 mg/kg/injection, schedule: Q01DX Z (sc), vehicle: steriod suspending solution 108 % of control and 118 % of control and 105 % of control | dose: 500.0 mg/kg/injection, schedule: Q01DX Z (sc), vehicle: steriod suspending solution 108 % of control and 112 % of control and 103 % of control | dose: 1000.0 mg/kg/injection, schedule: Q01DX Z (sc), vehicle: steriod suspending solution 102 % of control | dose: 2000.0 mg/kg/injection, schedule: Q01DX Z (sc), vehicle: steriod suspending solution 100 % of control

N#[N+]c1cnc([O-])[nH]c1=O
active: [1] 160 % of control | [2] 160 % of control and 166 % of control
inactive: dose: 1.25 mg/kg/injection, schedule: Q01DX010 (ip), vehicle: saline 115 % of control

Nc1c(I)cc(I)cc1C(=O)O
inactive: [3] 100 % of control | dose: 50.0 mg/kg/injection, schedule: Q01DX010 (ip), vehicle: saline 110 % of control and 88 % of control | dose: 100.0 mg/kg/injection, schedule: Q01DX010 (ip), vehicle: saline 100 % of control and 105 % of control | dose: 200.0 mg/kg/injection, schedule: Q01DX010 (ip), vehicle: saline 111 % of control and 105 % of control

CCCNc1ncnc2[nH]ncc12
inactive: dose: 3.13 mg/kg/injection, schedule: Q01DX010 (ip), vehicle: saline 100 % of control | dose: 5.0 mg/kg/injection, schedule: Q01DX Z (ip), vehicle: water 90 % of control | dose: 6.25 mg/kg/injection, schedule: Q01DX010 (ip), vehicle: saline 100 % of control | dose: 10.0 mg/kg/injection, schedule: Q01DX Z (ip), vehicle: water 93 % of control | dose: 20.0 mg/kg/injection, schedule: Q01DX Z (ip), vehicle: water 102 % of control | [3] 90 % of control

Cc1c2oc3c(C)ccc(C(=O)N[C@@H]4C(=O)N[C@H](C(C)C)C(=O)N5CCC[C@H]5C(=O)N(C)CC(=O)N(C)[C@@H](C(C)C)C(=O)O[C@H]4C)c3nc-2c(C(=O)N[C@@H]2C(=O)N[C@H](C(C)C)C(=O)N3CCC[C@H]3C(=O)N(C)CC(=O)N(C)[C@@H](C(C)C)C(=O)O[C@H]2C)c(N)c1=O (I: [aThr][dV]P[Sar][NMeV] / II: [aThr][dV]P[Sar][NMeV]; ester I:1-I:C, II:1-II:C; linker I:N-II:N via Actinocin(9to1))
inactive: dose: 0.7 micrograms/kg/injection, schedule: Q01DX Z (ip), vehicle: saline 103 % of control | dose: 1.5 micrograms/kg/injection, schedule: Q01DX Z (ip), vehicle: saline 94 % of control | dose: 6.2 micrograms/kg/injection, schedule: Q01DX Z (ip), vehicle: saline 110 % of control | dose: 25.0 micrograms/kg/injection, schedule: Q01DX Z (ip), vehicle: saline 119 % of control | dose: 50.0 micrograms/kg/injection, schedule: Q01DX Z (ip), vehicle: saline 104 % of control | dose: 100.0 micrograms/kg/injection, schedule: Q01DX010 (ip), vehicle: other 105 % of control | dose: 100.0 micrograms/kg/injection, schedule: Q01DX Z (ip), vehicle: saline 102 % of control
active: dose: 12.5 micrograms/kg/injection, schedule: Q01DX010 (ip), vehicle: other 155 % of control | dose: 25.0 micrograms/kg/injection, schedule: Q01DX010 (ip), vehicle: other 190 % of control and 205 % of control | dose: 50.0 micrograms/kg/injection, schedule: Q01DX010 (ip), vehicle: other 180 % of control and 245 % of control

CS(=O)(=O)OCCCl
inactive: dose: 12.5 mg/kg/injection, schedule: Q01DX Z (ip), vehicle: carboxymethylcellulose (CMC) 98 % of control | dose: 18.8 mg/kg/injection, schedule: Q01DX010 (ip), vehicle: saline 105 % of control and 95 % of control | dose: 25.0 mg/kg/injection, schedule: Q01DX Z (ip), vehicle: carboxymethylcellulose (CMC) 110 % of control | dose: 37.5 mg/kg/injection, schedule: Q01DX010 (ip), vehicle: saline 110 % of control and 100 % of control | dose: 50.0 mg/kg/injection, schedule: Q01DX Z (ip), vehicle: carboxymethylcellulose (CMC) 98 % of control | dose: 75.0 mg/kg/injection, schedule: Q01DX010 (ip), vehicle: saline 105 % of control and 90 % of control | dose: 100.0 mg/kg/injection, schedule: Q01DX Z (ip), vehicle: carboxymethylcellulose (CMC) 94 % of control | dose: 2000.0 mg/kg/injection, schedule: Q01DX Z (ip), vehicle: carboxymethylcellulose (CMC) 103 % of control

CN(C)[C@@H]1C(=O)C(C(N)=O)=C(O)[C@@]2(O)C(=O)C3=C(O)c4c(O)cccc4C[C@H]3C[C@@H]12
inactive: dose: 7.5 mg/kg/injection, schedule: Q01DX010 (ip), vehicle: saline 100 % of control | dose: 15.0 mg/kg/injection, schedule: Q01DX010 (ip), vehicle: saline 90 % of control and 100 % of control | dose: 30.0 mg/kg/injection, schedule: Q01DX010 (ip), vehicle: saline 100 % of control and 105 % of control | dose: 60.0 mg/kg/injection, schedule: Q01DX010 (ip), vehicle: saline 111 % of control

O=C(Nc1ccc(C2=NCCN2)cc1)c1cccc(C(=O)Nc2ccc(C3=NCCN3)cc2)c1
inactive: dose: 2.35 mg/kg/injection, schedule: Q01DX Z (ip), vehicle: water 106 % of control | dose: 4.7 mg/kg/injection, schedule: Q01DX Z (ip), vehicle: water 96 % of control | dose: 150.0 mg/kg/injection, schedule: Q01DX Z (ip), vehicle: water 100 % of control
active: dose: 9.4 mg/kg/injection, schedule: Q01DX Z (ip), vehicle: carboxymethylcellulose (CMC) 152 % of control | dose: 16.0 mg/kg/injection, schedule: Q01DX010 (ip), vehicle: saline 300 % of control and 333 % of control | dose: 18.8 mg/kg/injection, schedule: Q01DX Z (ip), vehicle: carboxymethylcellulose (CMC) 175 % of control | dose: 32.0 mg/kg/injection, schedule: Q01DX010 (ip), vehicle: saline 300 % of control and 333 % of control | dose: 37.5 mg/kg/injection, schedule: Q01DX Z (ip), vehicle: carboxymethylcellulose (CMC) 206 % of control | dose: 64.0 mg/kg/injection, schedule: Q01DX010 (ip), vehicle: saline 294 % of control and 300 % of control | dose: 75.0 mg/kg/injection, schedule: Q01DX Z (ip), vehicle: carboxymethylcellulose (CMC) 209 % of control | dose: 128.0 mg/kg/injection, schedule: Q01DX010 (ip), vehicle: saline 200 % of control

CCN(CC)C(=S)S
inactive: dose: 125.0 mg/kg/injection, schedule: Q01DX Z (ip), vehicle: other 99 % of control | dose: 250.0 mg/kg/injection, schedule: Q01DX Z (ip), vehicle: other 96 % of control | dose: 1000.0 mg/kg/injection, schedule: Q01DX Z (ip), vehicle: other 102 % of control
